Results published in patent US20240336608A1, “IL4I1 INHIBITORS AND METHODS OF USE” (Merck Sharp & Dohme LLC, priority 2023, published 2024).

Biological target: T1, recombinant IL4I1 (Homo sapiens, UniProt Q96RQ9)
T1 construct: purchased R&D Systems 5684-AO-020
T1 sequence (Q96RQ9 22-567): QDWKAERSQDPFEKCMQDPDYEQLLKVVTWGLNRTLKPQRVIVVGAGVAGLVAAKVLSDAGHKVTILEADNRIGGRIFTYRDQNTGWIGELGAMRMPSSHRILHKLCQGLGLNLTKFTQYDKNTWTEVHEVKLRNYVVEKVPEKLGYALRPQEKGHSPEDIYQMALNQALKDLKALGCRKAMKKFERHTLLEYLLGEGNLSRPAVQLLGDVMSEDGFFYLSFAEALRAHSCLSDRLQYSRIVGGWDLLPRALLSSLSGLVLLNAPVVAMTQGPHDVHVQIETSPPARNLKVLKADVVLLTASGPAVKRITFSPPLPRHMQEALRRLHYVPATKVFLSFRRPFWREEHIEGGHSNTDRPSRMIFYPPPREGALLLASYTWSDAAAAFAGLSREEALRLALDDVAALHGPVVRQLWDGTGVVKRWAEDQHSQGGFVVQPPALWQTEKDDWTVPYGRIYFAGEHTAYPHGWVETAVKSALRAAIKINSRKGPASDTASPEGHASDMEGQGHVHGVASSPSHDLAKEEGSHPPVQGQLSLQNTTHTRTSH
Assay: IL4I1 Enzymatic Assay (Amplex Red/HRP coupled detection of H2O2, fluorescence)
Format: biochemical
Settings: 1 nM recombinant IL4I1; four-hour pre-incubation with compound; 1 mM each Phe, Tyr, Trp; ten-point titration
Procedure, shortened: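 H2O2 output was coupled to resorufin fluorescence (ex 544/em 590) via 0.05 mM Amplex Red and 1 U/mL HRP. Substrate: Phe, Tyr, Trp at 1 mM each; enzyme 1 nM, 4 h compound pre-incubation, 120 min reaction, pH 7.0 Hepes. EC50 by nonlinear four-parameter regression, 1:3 ten-point titration.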

SMILES | EC50
Cc1c(C(=O)NCc2nnc(-c3ccccc3)s2)oc2ccccc12 [Example 53, 3-methyl-N-[(5-phenyl-1,3,4-thiadiazol-2-yl)methyl]benzofuran-2-carboxamide] | 357 nM
Cn1c(C(=O)NCc2nnc(-c3ccccc3)s2)cc2ccccc21 [Example 54, 1-methyl-N-((5-phenyl-1,3,4-thiadiazol-2-yl)methyl)-1H-indole-2-carboxamide] | 322 nM
Cc1nonc1C(=O)NCc1nnc(-c2ccccc2)s1 [Example 55, 4-methyl-N-[(5-phenyl-1,3,4-thiadiazol-2-yl)methyl]-1,2,5-oxadiazole-3-carboxamide] | 276 nM
O=C(NCc1nnc(-c2ccccc2)s1)c1cc2c(o1)CCNC2=O [Example 56, 4-oxo-N-[(5-phenyl-1,3,4-thiadiazol-2-yl)methyl]-6,7-dihydro-5H-furo[3,2-c]pyridine-2-carboxamide] | 234 nM
Cc1cc(C)c(C(=O)NCc2nnc(-c3ccccc3)s2)o1 [Example 57, 3,5-dimethyl-N-[(5-phenyl-1,3,4-thiadiazol-2-yl)methyl]furan-2-carboxamide] | 974 nM
COc1cc(C(=O)NCc2nnc(-c3ccccc3)s2)on1 [Example 58, 3-methoxy-N-[(5-phenyl-1,3,4-thiadiazol-2-yl)methyl]isoxazole-5-carboxamide] | 92 nM
O=C(NCc1nnc(-c2ccccc2)s1)c1cn(C2CC(F)(F)C2)nn1 [Example 61, 1-(3,3-difluorocyclobutyl)-N-((5-phenyl-1,3,4-thiadiazol-2-yl)methyl)-1H-1,2,3-triazole-4-carboxamide] | 68 nM
COCC[C@@H](C)n1cc(C(=O)NCc2nnc(-c3ccccc3)s2)nn1 [Example 65, (R)-1-(4-methoxybutan-2-yl)-N-((5-phenyl-1,3,4-thiadiazol-2-yl)methyl)-1H-1,2,3-triazole-4-carboxamide] | 68 nM
COCC[C@H](C)n1cc(C(=O)NCc2nnc(-c3ccccc3)s2)nn1 [Example 66, (S)-1-(4-methoxybutan-2-yl)-N-((5-phenyl-1,3,4-thiadiazol-2-yl)methyl)-1H-1,2,3-triazole-4-carboxamide] | 221 nM
O=C(NCc1nnc(-c2ccccc2)s1)c1cn(C2COC2)nn1 [Example 67, 1-(oxetan-3-yl)-N-((5-phenyl-1,3,4-thiadiazol-2-yl)methyl)-1H-1,2,3-triazole-4-carboxamide] | 14 nM
O=C(NCc1nnc(-c2ccccc2)s1)c1cn(C2CCC2)nn1 [Example 68, 1-cyclobutyl-N-((5-phenyl-1,3,4-thiadiazol-2-yl)methyl)-1H-1,2,3-triazole-4-carboxamide] | 17 nM
N#CCn1cc(C(=O)NCc2nnc(-c3ccccc3)s2)nn1 [Example 74, 1-(cyanomethyl)-N-((5-phenyl-1,3,4-thiadiazol-2-yl)methyl)-1H-1,2,3-triazole-4-carboxamide] | 14 nM
C[C@@H](CO)Cn1cc(C(=O)NCc2nnc(-c3ccccc3)s2)nn1 [Example 75, (R)-1-(3-hydroxy-2-methylpropyl)-N-((5-phenyl-1,3,4-thiadiazol-2-yl)methyl)-1H-1,2,3-triazole-4-carboxamide] | 17 nM
O=C(NCc1nnc(-c2ccccc2)s1)c1cn(CC2CCC2)nn1 [Example 77, 1-(cyclobutylmethyl)-N-((5-phenyl-1,3,4-thiadiazol-2-yl)methyl)-1H-1,2,3-triazole-4-carboxamide] | 12 nM
O=C(NCc1nnc(-c2ccccc2)s1)c1cn(CC2CCCC2)nn1 [Example 78, 1-(cyclopentylmethyl)-N-((5-phenyl-1,3,4-thiadiazol-2-yl)methyl)-1H-1,2,3-triazole-4-carboxamide] | 34 nM
O=C(NCc1nnc(-c2ccccc2)s1)c1cn(CC2CCCO2)nn1 (centres unmarked) [Example 79, N-((5-phenyl-1,3,4-thiadiazol-2-yl)methyl)-1-((tetrahydrofuran-2-yl)methyl)-1H-1,2,3-triazole-4-carboxamide] | 110 nM
CCC(CC)Cn1cc(C(=O)NCc2nnc(-c3ccccc3)s2)nn1 [Example 82, 1-(2-ethylbutyl)-N-((5-phenyl-1,3,4-thiadiazol-2-yl)methyl)-1H-1,2,3-triazole-4-carboxamide] | 282 nM
O=C(NCc1nnc(-c2ccccc2)s1)c1cn(CC2CCCCO2)nn1 (centres unmarked) [Example 83, N-((5-phenyl-1,3,4-thiadiazol-2-yl)methyl)-1-((tetrahydro-2H-pyran-2-yl)methyl)-1H-1,2,3-triazole-4-carboxamide] | 361 nM
N#CCCCn1cc(C(=O)NCc2nnc(-c3ccccc3)s2)nn1 [Example 84, 1-(3-cyanopropyl)-N-((5-phenyl-1,3,4-thiadiazol-2-yl)methyl)-1H-1,2,3-triazole-4-carboxamide] | 52 nM

The next compounds have a lower EC50 than those just listed; values first:

EC50 | SMILES
11 nM | N#CCCn1cc(C(=O)NCc2nnc(-c3ccccc3)s2)nn1 [Example 71, 1-(2-cyanoethyl)-N-((5-phenyl-1,3,4-thiadiazol-2-yl)methyl)-1H-1,2,3-triazole-4-carboxamide]
9 nM | CC(C)(C)OC(=O)N1CC(n2cc(C(=O)NCc3nnc(-c4ccccc4)s3)nn2)C1 [Example 69, tert-butyl 3-(4-(((5-phenyl-1,3,4-thiadiazol-2-yl)methyl)carbamoyl)-1H-1,2,3-triazol-1-yl)azetidine-1-carboxylate]
9 nM | CC(C#N)n1cc(C(=O)NCc2nnc(-c3ccccc3)s2)nn1 (centres unmarked) [Example 73, 1-(1-cyanoethyl)-N-((5-phenyl-1,3,4-thiadiazol-2-yl)methyl)-1H-1,2,3-triazole-4-carboxamide]
7 nM | O=C(NCc1nnc(-c2ccccc2)s1)c1cn(CCC(F)(F)F)nn1 [Example 62, N-((5-phenyl-1,3,4-thiadiazol-2-yl)methyl)-1-(3,3,3-trifluoropropyl)-1H-1,2,3-triazole-4-carboxamide]
6 nM | CNC(=O)Cn1cc(C(=O)NCc2nnc(-c3ccccc3)s2)nn1 [Example 81, 1-(2-(methylamino)-2-oxoethyl)-N-((5-phenyl-1,3,4-thiadiazol-2-yl)methyl)-1H-1,2,3-triazole-4-carboxamide]
5 nM | NC(=O)Cn1cc(C(=O)NCc2nnc(-c3ccccc3)s2)nn1 [Example 70, 1-(2-amino-2-oxoethyl)-N-((5-phenyl-1,3,4-thiadiazol-2-yl)methyl)-1H-1,2,3-triazole-4-carboxamide]
4 nM | O=C(NCc1nnc(-c2ccccc2)s1)c1cn(CC(F)(F)F)nn1 [Example 60, N-((5-phenyl-1,3,4-thiadiazol-2-yl)methyl)-1-(2,2,2-trifluoroethyl)-1H-1,2,3-triazole-4-carboxamide]
4 nM | C[C@H](CO)Cn1cc(C(=O)NCc2nnc(-c3ccccc3)s2)nn1 [Example 76, (S)-1-(3-hydroxy-2-methylpropyl)-N-((5-phenyl-1,3,4-thiadiazol-2-yl)methyl)-1H-1,2,3-triazole-4-carboxamide]
3 nM | CCn1cc(C(=O)NCc2nnc(-c3ccccc3)s2)nn1 [Example 72, 1-ethyl-N-((5-phenyl-1,3,4-thiadiazol-2-yl)methyl)-1H-1,2,3-triazole-4-carboxamide]
2 nM | O=C(NCc1nnc(-c2ccccc2)s1)c1cn(CCF)nn1 [Example 80, 1-(2-fluoroethyl)-N-((5-phenyl-1,3,4-thiadiazol-2-yl)methyl)-1H-1,2,3-triazole-4-carboxamide]
